According to US20090104167A1, “Prophylactic/Ameliorating Agent for Menopausal Disorder and Functional Beverage/Food” (Calpis Co., Ltd., priority 2005, published 2009):

Key:
[1] = molecular target: T1, human estrogen receptor α (Homo sapiens, UniProt P03372); test: Inhibition of [3H]estradiol binding to estrogen receptor α; settings: for binding inhibition rate to estrogen receptor α, inhibition rate (%): One millimolar test sample, 0.5 nM tritium-labeled estradiol, 25° C., 2 hours, pH 7.4
T1 sequence (P03372 1-595): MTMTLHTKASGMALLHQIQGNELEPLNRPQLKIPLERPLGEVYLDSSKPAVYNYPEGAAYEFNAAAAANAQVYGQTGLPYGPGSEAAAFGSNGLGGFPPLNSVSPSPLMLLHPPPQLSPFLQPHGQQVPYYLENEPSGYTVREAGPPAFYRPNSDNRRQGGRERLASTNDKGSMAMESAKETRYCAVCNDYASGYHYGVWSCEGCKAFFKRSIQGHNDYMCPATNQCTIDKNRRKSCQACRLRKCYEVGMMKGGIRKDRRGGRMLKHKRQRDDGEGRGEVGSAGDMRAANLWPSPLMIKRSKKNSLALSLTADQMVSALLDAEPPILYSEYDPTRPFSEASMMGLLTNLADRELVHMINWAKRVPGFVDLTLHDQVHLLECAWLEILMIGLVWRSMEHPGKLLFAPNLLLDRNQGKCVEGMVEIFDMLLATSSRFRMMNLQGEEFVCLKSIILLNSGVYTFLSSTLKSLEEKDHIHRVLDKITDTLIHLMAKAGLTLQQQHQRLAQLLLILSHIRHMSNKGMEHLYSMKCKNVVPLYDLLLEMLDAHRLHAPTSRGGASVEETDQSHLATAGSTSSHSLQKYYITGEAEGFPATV
Procedure: (§1) One millimolar of a test sample (pinoresinol diglycoside, pinoresinol and secoisolariciresinol) and 0.5 nM of tritium-labeled estradiol were reacted in 10 mM of tris buffer at pH 7.4 (with 0.1% BSA, 10% Glycerol, 1 mM DTT) containing a human estrogen receptor α or β at 25° C. for 2 hours. After completion of the reaction, the receptor was collected and washed to measure the amount of the tritium-labeled estradiol bound to the receptor according to a conventional method. The binding level of [^3H] Estradiol in the presence of a lignan or a metabolic intermediate was calculated with the binding of 0.5 nM of [^3H] Estradiol to the receptor as 100%, which was subtracted from 100 to define a binding inhibition rate.

[2] = molecular target: human estrogen receptor β (Homo sapiens, UniProt Q92731); test: Inhibition of [3H]estradiol binding to estrogen receptor β; settings: One millimolar test sample, 0.5 nM tritium-labeled estradiol, 25° C., 2 hours, pH 7.4
Chain of human estrogen receptor β (Q92731 whole entry): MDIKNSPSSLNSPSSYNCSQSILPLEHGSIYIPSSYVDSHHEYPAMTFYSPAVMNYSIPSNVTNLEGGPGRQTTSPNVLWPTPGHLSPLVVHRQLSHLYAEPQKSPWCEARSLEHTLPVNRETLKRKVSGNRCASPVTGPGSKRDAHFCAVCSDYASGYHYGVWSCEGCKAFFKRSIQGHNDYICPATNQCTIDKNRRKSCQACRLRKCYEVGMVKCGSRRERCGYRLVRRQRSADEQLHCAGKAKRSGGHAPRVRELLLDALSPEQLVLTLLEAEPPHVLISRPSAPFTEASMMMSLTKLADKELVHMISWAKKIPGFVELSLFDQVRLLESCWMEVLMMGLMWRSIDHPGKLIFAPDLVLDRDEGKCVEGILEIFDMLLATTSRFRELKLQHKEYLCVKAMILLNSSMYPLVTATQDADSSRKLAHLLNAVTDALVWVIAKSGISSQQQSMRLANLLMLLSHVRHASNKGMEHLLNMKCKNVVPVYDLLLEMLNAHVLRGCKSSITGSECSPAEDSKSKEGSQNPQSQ
Procedure: as §1

[3] = Lignan-metabolizing ability of microorganisms: conversion of pinoresinol to secoisolariciresinol (HPLC); design: key to pinoresinol to secoisolariciresinol: o indicates that the lignan was converted in 50% or more; x indicates that most of the lignan was not converted; settings: for pinoresinol to secoisolariciresinol: lignan 0.5 mM in MRS or GAM medium, culture at 37° C., HPLC
Procedure: Lignan-metabolizing abilities of various types of microorganisms were evaluated. The various microorganisms shown in the following Tables 1 to 3 were pre-cultured in MRS medium or GAM medium at 37° C. for 20 to 24 hours, and inoculated at 1 to 3% to 10 ml of MRS medium or GAM medium Du zhong lignan (pinoresinol and medioresinol) was added at a final concentration of 0.5 mM in the medium, and continued to culture at 37° C. Samples were taken at regular intervals and assayed by HPLC to monitor the conversion of lignan to secoisolariciresinol.

Row | Compound | binding inhibition rate to estrogen receptor α, inhibition rate (%) [1] [%] | binding inhibition rate to estrogen receptor β, inhibition rate (%) [2] [%] | pinoresinol to secoisolariciresinol [3] | other results
1 | COc1cc([C@H]2OC[C@H]3[C@@H]2CO[C@@H]3c2ccc(O[C@@H]3O[C@H](CO)[C@@H](O)[C@H](O)[C@H]3O)c(OC)c2)ccc1O[C@@H]1O[C@H](CO)[C@@H](O)[C@H](O)[C@H]1O [pinoresinol diglycoside] | 4 | 5 |  | 
2 | COc1cc(C[C@@H](CO)[C@H](CO)Cc2ccc(O)c(OC)c2)ccc1O [secoisolariciresinol] | 43 | 52 |  | binding inhibition rate to an estrogen receptor relative to pinoresinol diglycoside ([1]; estrogen receptor subtype not specified, versus pinoresinol diglycoside): ten times higher
3 | Bifidobacterium |  |  | x | 
4 | Lactobacillus acidophilus |  |  | ∘ | ability to produce secoisolariciresinol from pinoresinol (in words) ([3]; summary of Tables 1 to 3): capable of producing secoisolariciresinol from pinoresinol
5 | Lactobacillus plantarum |  |  | x | 
6 | Lactobacillus reuteri |  |  | x | 
7 | pinoresinol | 23 | 30 |  | 
